From ChEMBL document CHEMBL3085767, “Polypharmacology - foe or friend?” (J Med Chem, 2013)

How the values were obtained:
[1] = biological target: D(2) dopamine receptor (Homo sapiens, UniProt P14416); assay: Binding affinity to dopamine D2 receptor (unknown origin) by radioligand binding assay
[2] = biological target: T1, Adrenergic receptor alpha-1 (Homo sapiens, UniProt P35348+P25100+P35368); assay: Binding affinity to adrenergic alpha1 receptor (unknown origin) by radioligand binding assay
T1 sequence (P35348 whole entry): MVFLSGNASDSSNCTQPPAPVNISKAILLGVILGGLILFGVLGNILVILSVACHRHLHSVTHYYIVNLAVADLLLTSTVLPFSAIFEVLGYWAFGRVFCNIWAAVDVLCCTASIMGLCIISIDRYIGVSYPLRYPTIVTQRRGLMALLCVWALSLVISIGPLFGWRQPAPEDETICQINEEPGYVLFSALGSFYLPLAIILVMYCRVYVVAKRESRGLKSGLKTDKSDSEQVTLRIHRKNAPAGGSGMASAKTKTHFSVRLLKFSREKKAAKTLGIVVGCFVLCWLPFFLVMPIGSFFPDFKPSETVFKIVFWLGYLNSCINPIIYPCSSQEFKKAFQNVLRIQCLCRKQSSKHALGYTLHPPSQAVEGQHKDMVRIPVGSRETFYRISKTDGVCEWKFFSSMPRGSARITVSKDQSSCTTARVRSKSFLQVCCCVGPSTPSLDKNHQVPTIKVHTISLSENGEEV
T1 sequence (P25100 whole entry): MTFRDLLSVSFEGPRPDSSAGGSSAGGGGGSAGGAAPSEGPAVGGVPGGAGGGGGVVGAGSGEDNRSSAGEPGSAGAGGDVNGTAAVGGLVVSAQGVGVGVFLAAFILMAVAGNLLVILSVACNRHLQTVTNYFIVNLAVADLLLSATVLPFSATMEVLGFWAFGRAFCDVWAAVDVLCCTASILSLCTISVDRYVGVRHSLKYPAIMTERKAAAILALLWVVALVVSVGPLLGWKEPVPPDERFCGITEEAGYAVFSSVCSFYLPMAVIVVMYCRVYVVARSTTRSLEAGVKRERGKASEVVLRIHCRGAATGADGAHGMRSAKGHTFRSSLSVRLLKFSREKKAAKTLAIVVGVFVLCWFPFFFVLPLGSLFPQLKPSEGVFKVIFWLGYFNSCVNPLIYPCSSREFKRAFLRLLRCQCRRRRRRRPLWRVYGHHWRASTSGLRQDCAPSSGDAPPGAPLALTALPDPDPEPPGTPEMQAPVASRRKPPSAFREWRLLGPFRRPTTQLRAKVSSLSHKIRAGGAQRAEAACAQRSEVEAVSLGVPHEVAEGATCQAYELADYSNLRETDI
T1 sequence (P35368 whole entry): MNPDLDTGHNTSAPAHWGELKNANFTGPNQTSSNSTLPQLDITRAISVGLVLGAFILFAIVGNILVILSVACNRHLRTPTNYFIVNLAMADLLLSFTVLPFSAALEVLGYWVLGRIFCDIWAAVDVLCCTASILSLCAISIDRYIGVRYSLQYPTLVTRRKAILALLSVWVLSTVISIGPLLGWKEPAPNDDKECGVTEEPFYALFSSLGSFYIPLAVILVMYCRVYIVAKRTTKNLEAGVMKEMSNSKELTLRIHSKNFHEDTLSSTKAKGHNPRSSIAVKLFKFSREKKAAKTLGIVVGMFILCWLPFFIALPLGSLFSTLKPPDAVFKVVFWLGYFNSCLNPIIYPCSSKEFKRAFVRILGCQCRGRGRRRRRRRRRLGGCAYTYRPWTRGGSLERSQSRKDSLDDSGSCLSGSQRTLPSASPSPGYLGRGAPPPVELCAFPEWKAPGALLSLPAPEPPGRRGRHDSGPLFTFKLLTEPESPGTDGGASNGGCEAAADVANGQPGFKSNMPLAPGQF

[3] = biological target: 5-hydroxytryptamine receptor 7 (Homo sapiens, UniProt P34969); assay: Binding affinity to 5HT7 receptor (unknown origin) by radioligand binding assay
5-hydroxytryptamine receptor 7, sequence (P34969 whole entry): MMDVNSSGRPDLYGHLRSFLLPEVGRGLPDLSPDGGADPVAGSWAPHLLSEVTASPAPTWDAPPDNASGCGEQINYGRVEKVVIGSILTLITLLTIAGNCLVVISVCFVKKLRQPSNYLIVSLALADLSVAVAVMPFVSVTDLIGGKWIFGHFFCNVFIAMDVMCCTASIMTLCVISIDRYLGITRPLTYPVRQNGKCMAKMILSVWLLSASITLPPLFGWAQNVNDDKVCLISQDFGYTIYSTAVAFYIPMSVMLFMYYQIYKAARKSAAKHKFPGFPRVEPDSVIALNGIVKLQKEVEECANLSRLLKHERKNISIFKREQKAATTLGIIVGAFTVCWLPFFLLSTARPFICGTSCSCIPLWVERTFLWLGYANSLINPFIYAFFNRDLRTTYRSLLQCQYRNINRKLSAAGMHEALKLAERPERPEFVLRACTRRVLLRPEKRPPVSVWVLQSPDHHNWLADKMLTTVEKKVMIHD

D(2) dopamine receptor, sequence (P14416 whole entry): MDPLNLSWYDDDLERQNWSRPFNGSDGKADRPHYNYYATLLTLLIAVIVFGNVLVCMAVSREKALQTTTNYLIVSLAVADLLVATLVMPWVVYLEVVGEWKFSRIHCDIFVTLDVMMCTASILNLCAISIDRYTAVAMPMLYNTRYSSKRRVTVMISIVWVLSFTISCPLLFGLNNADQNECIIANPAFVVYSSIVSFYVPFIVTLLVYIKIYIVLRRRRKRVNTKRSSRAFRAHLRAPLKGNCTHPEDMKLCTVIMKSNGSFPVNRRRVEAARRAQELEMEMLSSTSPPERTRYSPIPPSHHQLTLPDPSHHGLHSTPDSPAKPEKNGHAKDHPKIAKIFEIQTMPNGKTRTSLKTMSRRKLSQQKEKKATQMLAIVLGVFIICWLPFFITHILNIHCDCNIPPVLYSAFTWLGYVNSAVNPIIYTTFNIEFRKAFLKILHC

IC50 [1]	Ki [2]	Ki [3]	Structure (SMILES)
410 nM			CN(C)CCCN1c2ccccc2CCc2ccccc21 [IMIPRAMINE]
100 nM			CC(CN1c2ccccc2Sc2ccccc21)N(C)C (centres undefined) [PROMETHAZINE]
	11 nM	6 nM	O=C1Cc2cc(CCN3CCN(c4nsc5ccccc45)CC3)c(Cl)cc2N1 [ZIPRASIDONE]
